Experimental data from article PMC4657098, “A Review of the Updated Pharmacophore for the Alpha 5 GABA(A) Benzodiazepine Receptor Model” (International Journal of Medicinal Chemistry, 2015).
“Also recorded” adds a separate entry of the source.

Columns and labels:
H4 = target: T1, H4 (Homo sapiens, UniProt Q9H3N8); test: PDSP receptor binding, H4; details: PDSP primary screen at 10 µM
T1 construct: purchased NIMH PDSP (Psychoactive Drug Screening Program, Roth lab, Case Western Reserve)

CB1 = target: T2, CB1 (Homo sapiens, UniProt P21554); test: PDSP receptor binding, CB1; details: PDSP primary screen at 10 µM
T2 construct: purchased NIMH PDSP (Psychoactive Drug Screening Program, Roth lab, Case Western Reserve)

Beta1 = target: T3, Beta1 (Homo sapiens, UniProt P08588); test: PDSP receptor binding, Beta1; details: PDSP primary screen at 10 µM
T3 construct: purchased NIMH PDSP (Psychoactive Drug Screening Program, Roth lab, Case Western Reserve)

5ht2a = target: T4, 5ht2a (Homo sapiens, UniProt P28223); test: PDSP receptor binding, 5ht2a; details: PDSP primary screen at 10 µM
T4 construct: purchased NIMH PDSP (Psychoactive Drug Screening Program, Roth lab, Case Western Reserve)

5ht1d = target: T5, 5ht1d (Homo sapiens, UniProt P28221); test: PDSP receptor binding, 5ht1d; details: PDSP primary screen at 10 µM
T5 construct: purchased NIMH PDSP (Psychoactive Drug Screening Program, Roth lab, Case Western Reserve)

Imidaz oline = test: PDSP receptor binding, Imidazoline; details: PDSP primary screen at 10 µM
α2C = target: T6, α2C (Homo sapiens, UniProt P18825); test: PDSP receptor binding, α2C; details: PDSP primary screen at 10 µM
T6 construct: purchased NIMH PDSP (Psychoactive Drug Screening Program, Roth lab, Case Western Reserve)

5ht1a = target: T7, 5ht1a (Homo sapiens, UniProt P08908); test: PDSP receptor binding, 5ht1a; details: PDSP primary screen at 10 µM
T7 construct: purchased NIMH PDSP (Psychoactive Drug Screening Program, Roth lab, Case Western Reserve)

M4 = target: T8, M4 (Homo sapiens, UniProt P08173); test: PDSP receptor binding, M4; details: PDSP primary screen at 10 µM
T8 construct: purchased NIMH PDSP (Psychoactive Drug Screening Program, Roth lab, Case Western Reserve)

DOR = target: T9, DOR (Homo sapiens, UniProt P41143); test: PDSP receptor binding, DOR; details: PDSP primary screen at 10 µM
T9 construct: purchased NIMH PDSP (Psychoactive Drug Screening Program, Roth lab, Case Western Reserve)

α6β3γ2 GABAA/BzR = α6β3γ2 GABAA/BzR (Homo sapiens, UniProt P18507+Q16445); test: Competition binding to HEK cell membranes, α6β3γ2; design: expressed in transfected cells; details: Figure 5; read-out: Ki α6
5ht3 = target: T10, 5ht3 (Homo sapiens, UniProt P46098); test: PDSP receptor binding, 5ht3; details: PDSP primary screen at 10 µM
T10 construct: purchased NIMH PDSP (Psychoactive Drug Screening Program, Roth lab, Case Western Reserve)

M5 = target: T11, M5 (Homo sapiens, UniProt P08912); test: PDSP receptor binding, M5; details: PDSP primary screen at 10 µM
T11 construct: purchased NIMH PDSP (Psychoactive Drug Screening Program, Roth lab, Case Western Reserve)

5ht2b = target: T12, 5ht2b (Homo sapiens, UniProt P41595); test: PDSP receptor binding, 5ht2b; details: PDSP primary screen at 10 µM
T12 construct: purchased NIMH PDSP (Psychoactive Drug Screening Program, Roth lab, Case Western Reserve)

M2 = target: T13, M2 (Homo sapiens, UniProt P08172); test: PDSP receptor binding, M2; details: PDSP primary screen at 10 µM
T13 construct: purchased NIMH PDSP (Psychoactive Drug Screening Program, Roth lab, Case Western Reserve)

D4 = target: T14, D4 (Homo sapiens, UniProt P21917); test: PDSP receptor binding, D4; details: PDSP primary screen at 10 µM
T14 construct: purchased NIMH PDSP (Psychoactive Drug Screening Program, Roth lab, Case Western Reserve)

NMDA = test: PDSP receptor binding, NMDA; details: PDSP primary screen at 10 µM
M3 = target: T15, M3 (Homo sapiens, UniProt P20309); test: PDSP receptor binding, M3; details: PDSP primary screen at 10 µM
T15 construct: purchased NIMH PDSP (Psychoactive Drug Screening Program, Roth lab, Case Western Reserve)

5ht7 = target: T16, 5ht7 (Homo sapiens, UniProt P34969); test: PDSP receptor binding, 5ht7; details: PDSP primary screen at 10 µM
T16 construct: purchased NIMH PDSP (Psychoactive Drug Screening Program, Roth lab, Case Western Reserve)

5ht2c = target: T17, 5ht2c (Homo sapiens, UniProt P28335); test: PDSP receptor binding, 5ht2c; details: PDSP primary screen at 10 µM
T17 construct: purchased NIMH PDSP (Psychoactive Drug Screening Program, Roth lab, Case Western Reserve)

M1 = target: T18, M1 (Homo sapiens, UniProt P11229); test: PDSP receptor binding, M1; details: PDSP primary screen at 10 µM
T18 construct: purchased NIMH PDSP (Psychoactive Drug Screening Program, Roth lab, Case Western Reserve)

H1 = target: T19, H1 (Homo sapiens, UniProt P35367); test: PDSP receptor binding, H1; details: PDSP primary screen at 10 µM
T19 construct: purchased NIMH PDSP (Psychoactive Drug Screening Program, Roth lab, Case Western Reserve)

[1] = PDSP receptor binding, β1B; details: PDSP primary screen at 10 µM
D2 = target: T20, D2 (Homo sapiens, UniProt P14416); test: PDSP receptor binding, D2; details: PDSP primary screen at 10 µM
T20 construct: purchased NIMH PDSP (Psychoactive Drug Screening Program, Roth lab, Case Western Reserve)

H2 = target: T21, H2 (Homo sapiens, UniProt P25021); test: PDSP receptor binding, H2; details: PDSP primary screen at 10 µM
T21 construct: purchased NIMH PDSP (Psychoactive Drug Screening Program, Roth lab, Case Western Reserve)

α2B = target: T22, α2B (Homo sapiens, UniProt P18089); test: PDSP receptor binding, α2B; details: PDSP primary screen at 10 µM
T22 construct: purchased NIMH PDSP (Psychoactive Drug Screening Program, Roth lab, Case Western Reserve)

mice = system: mice; design: method as in earlier work; details: cited from earlier work

Structure (SMILES): CCc1ccc2c(c1)C(=O)N(C)Cc1c(C(=O)OCCCOC(=O)c3ncn4c3CN(C)C(=O)c3cc(CC)ccc3-4)ncn1-2 [XLi-356 (10), 1,3-Bis(8-ethyl-5,6-dihydro-5-methyl-6-oxo-4H-imidazo[1,5a][1,4]benzodiazepine-3-carboxy) propyl diester]
- H4 binding (H4): ∗ (“∗” indicates “primary missed” (<50% inhibition at 10 µM))
- CB1 binding (CB1): ∗ (“∗” indicates “primary missed” (<50% inhibition at 10 µM))
- Beta1 binding (Beta1): ∗ (“∗” indicates “primary missed” (<50% inhibition at 10 µM))
- 5ht2a binding (5ht2a): ∗ (“∗” indicates “primary missed” (<50% inhibition at 10 µM))
- 5ht1d binding (5ht1d): ∗ (“∗” indicates “primary missed” (<50% inhibition at 10 µM))
- Imidaz oline binding (Imidaz oline): ∗ (“∗” indicates “primary missed” (<50% inhibition at 10 µM))
- α2C binding (α2C): ∗ (“∗” indicates “primary missed” (<50% inhibition at 10 µM))
- 5ht1a binding (5ht1a): ∗ (“∗” indicates “primary missed” (<50% inhibition at 10 µM))
- M4 binding (M4): ∗ (“∗” indicates “primary missed” (<50% inhibition at 10 µM))
- DOR binding (DOR): ∗ (“∗” indicates “primary missed” (<50% inhibition at 10 µM))
- Ki (α6β3γ2 GABAA/BzR): 5 µM
- 5ht3 binding (5ht3): ∗ (“∗” indicates “primary missed” (<50% inhibition at 10 µM))
- M5 binding (M5): ∗ (“∗” indicates “primary missed” (<50% inhibition at 10 µM))
- 5ht2b binding (5ht2b): ∗ (“∗” indicates “primary missed” (<50% inhibition at 10 µM))
- M2 binding (M2): ∗ (“∗” indicates “primary missed” (<50% inhibition at 10 µM))
- D4 binding (D4): ∗ (“∗” indicates “primary missed” (<50% inhibition at 10 µM))
- NMDA binding (NMDA): ∗ (“∗” indicates “primary missed” (<50% inhibition at 10 µM))
- M3 binding (M3): ∗ (“∗” indicates “primary missed” (<50% inhibition at 10 µM))
- 5ht7 binding (5ht7): ∗ (“∗” indicates “primary missed” (<50% inhibition at 10 µM))
- 5ht2c binding (5ht2c): ∗ (“∗” indicates “primary missed” (<50% inhibition at 10 µM))
- M1 binding (M1): ∗ (“∗” indicates “primary missed” (<50% inhibition at 10 µM))
- H1 binding (H1): ∗ (“∗” indicates “primary missed” (<50% inhibition at 10 µM))
- β1B binding [1]: ∗ (“∗” indicates “primary missed” (<50% inhibition at 10 µM))
- D2 binding (D2): ∗ (“∗” indicates “primary missed” (<50% inhibition at 10 µM))
- H2 binding (H2): ∗ (“∗” indicates “primary missed” (<50% inhibition at 10 µM))
- α2B binding (α2B): ∗ (“∗” indicates “primary missed” (<50% inhibition at 10 µM))
- audio cued fear conditioning (mice): no activity; also recorded: not able to reverse
